Among the data in patent publication US10336709B2, “Lp-PLA2 inhibitors” (ABIDE THERAPEUTICS, INC., priority 2015, dated 2019) are IC50 values, retold here.

A value given as a limit tells only on which side of the number the result lay.

Experiment [1] concerns the target T1, Lp-PLA2 (Mus musculus, UniProt Q60963).
T1 construct: Mouse brain membrane proteomes (50 μL, 1.0 mg/mL total protein concentration) were preincubated; from tissue; host or cells: mouse brain membrane fraction
T1 sequence (Q60963 22-440): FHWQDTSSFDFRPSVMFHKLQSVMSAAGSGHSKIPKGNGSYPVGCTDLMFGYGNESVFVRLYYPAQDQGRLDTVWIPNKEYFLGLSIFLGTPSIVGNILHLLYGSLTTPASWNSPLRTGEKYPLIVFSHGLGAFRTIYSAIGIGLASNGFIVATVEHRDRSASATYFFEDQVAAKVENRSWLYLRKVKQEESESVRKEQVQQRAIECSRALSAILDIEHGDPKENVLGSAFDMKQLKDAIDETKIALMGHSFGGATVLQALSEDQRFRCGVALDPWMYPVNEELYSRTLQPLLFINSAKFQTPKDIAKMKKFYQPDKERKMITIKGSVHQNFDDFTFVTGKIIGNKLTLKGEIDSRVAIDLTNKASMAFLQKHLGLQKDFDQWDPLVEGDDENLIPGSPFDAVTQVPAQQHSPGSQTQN
Description: In vitro competitive activity-based protein profiling (HT-01 probe, gel band PLA2G7). The format is biochemical. To be noted: mouse brain membrane proteomes, 30 min preincubation at 37° C. The method, then:
(§1) Compounds are tested to assess their Lp-PLA2 and serine hydrolase activity using the following in vitro assays.
(§2) In Vitro Competitive Activity-Based Protein Profiling
(§3) Mouse brain membrane proteomes (50 μL, 1.0 mg/mL total protein concentration) were preincubated with varying concentrations of inhibitors at 37° C. After 30 min, HT-01 probe (1.0 μL, 50 μM in DMSO) was added and the mixture was incubated for another 30 min at room temperature. Reactions were quenched with SDS loading buffer (15 μL-4×) and run on SDS-PAGE gels. Following gel imaging, serine hydrolase activity was determined by measuring fluorescent intensity of gel bands corresponding to PLA2G7 and ABHD6 using ImageJ 1.49 k software.

In experiment [2] the target is T2, ABHD6 (Mus musculus, UniProt Q8R2Y0).
T2 construct: Mouse brain membrane proteomes (50 μL, 1.0 mg/mL total protein concentration) were preincubated; from tissue; host or cells: mouse brain membrane fraction
T2 sequence (Q8R2Y0 1-336): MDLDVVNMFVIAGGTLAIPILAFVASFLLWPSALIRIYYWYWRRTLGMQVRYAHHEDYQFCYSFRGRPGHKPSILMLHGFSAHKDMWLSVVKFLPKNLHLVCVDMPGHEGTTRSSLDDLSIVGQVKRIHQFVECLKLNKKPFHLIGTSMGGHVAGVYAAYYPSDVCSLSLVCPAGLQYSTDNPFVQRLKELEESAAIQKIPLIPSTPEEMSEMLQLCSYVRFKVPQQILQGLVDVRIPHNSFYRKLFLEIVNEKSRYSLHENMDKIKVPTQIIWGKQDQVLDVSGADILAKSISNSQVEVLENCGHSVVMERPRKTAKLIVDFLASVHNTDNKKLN
Description: In vitro competitive activity-based protein profiling (HT-01 probe, gel band ABHD6). The format is biochemical. To be noted: mouse brain membrane proteomes, 30 min preincubation at 37° C. The procedure:
as §1, §2, §3

Consider `O=C(O)c1cccc(N2CCN(C(=O)ON3C(=O)N[C@@H](Cc4ccccc4)C3=O)CC2)c1Cl` [Example 19, (S)-3-(4-((4-benzyl-2,5-dioxoimidazolidin-1-yloxy)carbonyl)piperazin-1-yl)-2-chlorobenzoic acid], for which the IC50 in experiment [1] and in experiment [2] was > 1000 nM each time.

In the case of `O=C(ON1C(=O)N[C@@H](Cc2ccccc2)C1=O)N1CCN(c2cc(C(=O)N3CCCCC3)ccc2Cl)CC1` [Example 17, (S)-4-benzyl-2,5-dioxoimidazolidin-1-yl 4-(2-chloro-5-(piperidine-1-carbonyl)phenyl)piperazine-1-carboxylate], the IC50 in experiment [1] and in experiment [2] was < 100 nM each time.

One may read the IC50 as the midpoint of a concentration-inhibition curve. A high value points to weaker potency.
